Measured values: patent US12109197B2, “Combinations of β-lactam compounds and probenecid and uses thereof” (Iterum Therapeutics International Limited, priority 2018, dated 2024)
Read-outs that look alike come from different tables or passages of the source. Each block holds one molecule with its values, some of them ahead of it.

What was measured:
[1] = Experimental: Subjects were to be dosed twice a day (every 12 hours) for 6 days and on Day 7 they were to be dosed once. All treatment groups could be run in parallel or sequentially. Subjects were allocated based on the randomization list. Randomization numbers were assigned sequentially as subjects entered into groups on the basis of their order of entry into the study. Subjects who withdrew for reasons unrelated to safety may have been replaced. Blood samples were obtained at prespecified intervals in order to characterize pharmacokinetics.
[2] = Dacey and Sande 1974; cited from earlier work
[3] = Multiple-dose study of sulopenem delivered intravenously: plasma pharmacokinetics; format: in vivo, human; conditions: for AUC(0-inf) / AUC(0-t) / Cmax / half-life / Tmax / CL renal: human, plasma, iv; for Tmax: median [range]; for Rac: accumulation ratio
Experimental: The pharmacokinetics of sulopenem delivered intravenously were studied in a randomized, investigator-blind, subject-blind, sponsor-open, placebo-controlled, multiple-dose study of sulopenem. There were 5 cohorts dosed. Each subject was dosed for up to 14 days. Each cohort consisted of 10 subjects.

[4] = system: Porphyromonas gingivalis; conditions: Ednie and Appelbaum 2009; cited from earlier work
[5] = 800 mg, intravenous 800 mg (3 h BID), Day 1
[6] = 800 mg, intravenous 800 mg (3 h BID), Day 14
[7] = 1200 mg, intravenous 1200 mg (1 h BID), Day 1
[8] = 1200 mg, intravenous 1200 mg (1 h BID), Day 14
[9] = 1200 mg, intravenous 1200 mg ([…] BID), Day 1
[10] = 1200 mg, intravenous 1200 mg ([…] BID), Day 14
[11] = 1600 mg, intravenous 1600 mg (1.5 h BID), Day 1
[12] = 1600 mg, intravenous 1600 mg (1.5 h BID), Day 14
[13] = 2000 mg, intravenous 2000 mg (1.5 h BID), Day 1

AUC of sulopenem on Day 7 compared with Day 1 ([1]; administered alone through the oral route): lower than that on Day 1
Compound: CCOC(C)(C)C(=O)OCOC(=O)C1=C(S[C@H]2CC[S@@+]([O-])C2)S[C@@H]2[C@@H]([C@@H](C)O)C(=O)N12 [Compound III-1b]
AUC of sulopenem on Day 7 compared with Day 1 ([1]; co-administered with probenecid): increased on Day 7 beyond that seen on Day 1

Compound: CCCN(CCC)S(=O)(=O)c1ccc(C(=O)O)cc1 [probenecid]
effect on concentrations of β-lactam compounds in the cerebrospinal fluid [2]: increase the concentrations of β-lactam compounds in the cerebrospinal fluid

AUC(0-inf) [3, 5]: 22400 ng·h/mL
AUC(0-t) [3, 5]: 22300 ng·h/mL
Cmax [3, 5]: 7270 ng/mL
half-life [3, 5]: 0.825 h
Tmax [3, 5]: 2 h
AUC(0-inf) [3, 6]: 26500 ng·h/mL
AUC(0-t) [3, 6]: 26400 ng·h/mL
CL renal [3, 6]: 257 mL/min
Cmax [3, 6]: 8970 ng/mL
half-life [3, 6]: 0.889 h
Tmax [3, 6]: 2 h
AUC(0-inf) [3, 7]: 42300 ng·h/mL
AUC(0-t) [3, 7]: 42200 ng·h/mL
Cmax [3, 7]: 32500 ng/mL
half-life [3, 7]: 1.04 h
Tmax [3, 7]: 1 h
AUC(0-inf) [3, 8]: 41400 ng·h/mL
AUC(0-t) [3, 8]: 41300 ng·h/mL
CL renal [3, 8]: 245 mL/min
Cmax [3, 8]: 30700 ng/mL
half-life [3, 8]: 1.05 h
Tmax [3, 8]: 1 h
AUC(0-inf) [3, 9]: 41900 ng·h/mL
AUC(0-t) [3, 9]: 41800 ng·h/mL
Cmax [3, 9]: 16600 ng/mL
half-life [3, 9]: 1.12 h
Tmax [3, 9]: 2.25 h
AUC(0-inf) [3, 10]: 34600 ng·h/mL
AUC(0-t) [3, 10]: 34500 ng·h/mL
CL renal [3, 10]: 313 mL/min
Cmax [3, 10]: 13500 ng/mL
half-life [3, 10]: 1.01 h
Tmax [3, 10]: 2 h
AUC(0-inf) [3, 11]: 67300 ng·h/mL
AUC(0-t) [3, 11]: 67100 ng·h/mL
Cmax [3, 11]: 40100 ng/mL
half-life [3, 11]: 1.04 h
Tmax [3, 11]: 1.5 h
AUC(0-inf) [3, 12]: 54900 ng·h/mL
AUC(0-t) [3, 12]: 54700 ng·h/mL
CL renal [3, 12]: 327 mL/min
Cmax [3, 12]: 31800 ng/mL
half-life [3, 12]: 1.2 h
Tmax [3, 12]: 1.25 h
AUC(0-inf) [3, 13]: 90300 ng·h/mL
AUC(0-t) [3, 13]: 90100 ng·h/mL
Cmax [3, 13]: 51500 ng/mL
half-life [3, 13]: 1.12 h
Tmax [3, 13]: 1.5 h
Rac ([3]; intravenous 800 mg (3 h BID), Day 14): 1.15 (29)
Rac ([3]; intravenous 1200 mg (1 h BID), Day 14): 0.928 (17)
Rac ([3]; intravenous 1200 mg ([…] BID), Day 14): 0.841 (9)
Rac ([3]; intravenous 1600 mg (1.5 h BID), Day 14): 0.791 (9)
Compound: C[C@@H](O)[C@H]1C(=O)N2C(C(=O)O)=C(S[C@H]3CC[S@@+]([O-])C3)S[C@H]12 [sulopenem]
activity against Porphyromonas gingivalis [4]: active
